Here are results for four compounds from PMC4516653 (European journal of pharmaceutical sciences : official …, 2015).

Values joined by “and” are separate entries in the source; they are usually repeats but may differ in a detail not shown here. Equal values may be shown once. Read-outs that look alike come from different tables or passages of the source. Where only a bound is given, the exact number is not on record here.

Data set [1] has as its target T1, CYP 1A2 (Homo sapiens, UniProt P05177).
T1 sequence (P05177 1-516): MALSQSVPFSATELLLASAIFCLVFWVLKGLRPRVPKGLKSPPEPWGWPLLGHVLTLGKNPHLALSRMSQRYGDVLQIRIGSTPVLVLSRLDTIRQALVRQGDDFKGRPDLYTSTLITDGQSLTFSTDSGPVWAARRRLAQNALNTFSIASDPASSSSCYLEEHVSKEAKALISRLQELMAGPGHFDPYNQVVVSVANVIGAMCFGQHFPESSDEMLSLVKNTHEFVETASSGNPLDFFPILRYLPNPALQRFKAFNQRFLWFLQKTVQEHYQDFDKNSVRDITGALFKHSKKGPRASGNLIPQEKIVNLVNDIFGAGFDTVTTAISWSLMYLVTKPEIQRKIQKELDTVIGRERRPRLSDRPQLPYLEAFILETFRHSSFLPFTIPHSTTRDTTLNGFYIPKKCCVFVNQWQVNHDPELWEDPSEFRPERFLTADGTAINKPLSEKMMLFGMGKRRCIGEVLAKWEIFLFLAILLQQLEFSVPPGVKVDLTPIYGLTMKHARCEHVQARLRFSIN
Kind of data set: CYP inhibition assay in human liver microsomes. It is filed as in vitro ADME. (Liver microsomes are vesicles of endoplasmic reticulum, rich in cytochrome P450 enzymes.)

In data set [2] the target is CYP 2D6 (Homo sapiens, UniProt P10635). Kind of data set: CYP inhibition assay in human liver microsomes. It is filed as in vitro ADME.
CYP 2D6, sequence (P10635 whole entry): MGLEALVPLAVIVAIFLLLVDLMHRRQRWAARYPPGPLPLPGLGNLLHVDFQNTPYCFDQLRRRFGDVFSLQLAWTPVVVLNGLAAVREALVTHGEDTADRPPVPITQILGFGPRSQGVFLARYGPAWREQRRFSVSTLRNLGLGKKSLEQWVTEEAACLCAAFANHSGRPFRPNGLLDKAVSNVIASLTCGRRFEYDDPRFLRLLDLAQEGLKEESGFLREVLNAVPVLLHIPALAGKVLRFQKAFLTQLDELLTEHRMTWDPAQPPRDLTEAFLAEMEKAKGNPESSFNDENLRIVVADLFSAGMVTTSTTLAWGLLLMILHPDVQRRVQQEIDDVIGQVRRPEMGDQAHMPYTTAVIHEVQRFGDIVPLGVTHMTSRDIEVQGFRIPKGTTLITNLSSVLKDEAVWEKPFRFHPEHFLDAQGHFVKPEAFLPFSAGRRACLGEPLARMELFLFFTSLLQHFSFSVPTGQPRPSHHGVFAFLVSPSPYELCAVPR
Data set [3] deals with CYP 2E1 (Homo sapiens, UniProt P05181). The data set can be described thus: CYP inhibition assay in human liver microsomes. It is filed as in vitro ADME.
CYP 2E1, sequence (P05181 whole entry): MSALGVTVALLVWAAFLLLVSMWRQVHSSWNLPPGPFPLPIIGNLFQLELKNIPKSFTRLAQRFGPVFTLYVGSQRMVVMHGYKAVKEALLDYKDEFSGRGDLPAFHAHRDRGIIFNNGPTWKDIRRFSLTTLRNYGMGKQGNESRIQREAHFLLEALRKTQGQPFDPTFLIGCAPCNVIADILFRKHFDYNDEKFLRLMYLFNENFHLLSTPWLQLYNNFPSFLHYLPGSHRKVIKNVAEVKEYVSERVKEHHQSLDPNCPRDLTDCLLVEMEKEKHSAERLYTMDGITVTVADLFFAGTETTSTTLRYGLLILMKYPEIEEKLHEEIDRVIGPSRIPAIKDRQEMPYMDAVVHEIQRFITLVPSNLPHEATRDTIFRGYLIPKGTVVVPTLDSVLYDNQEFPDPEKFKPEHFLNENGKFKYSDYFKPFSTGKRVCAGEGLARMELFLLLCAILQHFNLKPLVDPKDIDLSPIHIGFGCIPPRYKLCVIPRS
Data set [4] has as its target T2, CYP 2A6 (Homo sapiens, UniProt P11509).
T2 sequence (P11509 1-494): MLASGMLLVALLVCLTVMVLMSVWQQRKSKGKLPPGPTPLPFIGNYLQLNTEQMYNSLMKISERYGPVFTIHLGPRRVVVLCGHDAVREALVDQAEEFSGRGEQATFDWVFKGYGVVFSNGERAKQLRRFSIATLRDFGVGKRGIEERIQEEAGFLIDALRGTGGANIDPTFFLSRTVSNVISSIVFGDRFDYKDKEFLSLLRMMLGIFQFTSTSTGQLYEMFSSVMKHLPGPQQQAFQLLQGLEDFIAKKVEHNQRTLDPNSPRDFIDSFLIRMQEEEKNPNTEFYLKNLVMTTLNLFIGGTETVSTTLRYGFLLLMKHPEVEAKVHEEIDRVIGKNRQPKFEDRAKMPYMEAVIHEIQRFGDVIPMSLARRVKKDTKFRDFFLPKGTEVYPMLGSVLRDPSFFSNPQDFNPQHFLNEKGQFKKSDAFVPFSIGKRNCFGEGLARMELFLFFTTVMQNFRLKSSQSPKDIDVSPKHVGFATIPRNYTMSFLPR
Kind of data set: CYP inhibition assay in human liver microsomes. The class given is in vitro ADME.

Data set [5] deals with T3, CYP 2B6 (Homo sapiens, UniProt P20813).
T3 sequence (P20813 1-491): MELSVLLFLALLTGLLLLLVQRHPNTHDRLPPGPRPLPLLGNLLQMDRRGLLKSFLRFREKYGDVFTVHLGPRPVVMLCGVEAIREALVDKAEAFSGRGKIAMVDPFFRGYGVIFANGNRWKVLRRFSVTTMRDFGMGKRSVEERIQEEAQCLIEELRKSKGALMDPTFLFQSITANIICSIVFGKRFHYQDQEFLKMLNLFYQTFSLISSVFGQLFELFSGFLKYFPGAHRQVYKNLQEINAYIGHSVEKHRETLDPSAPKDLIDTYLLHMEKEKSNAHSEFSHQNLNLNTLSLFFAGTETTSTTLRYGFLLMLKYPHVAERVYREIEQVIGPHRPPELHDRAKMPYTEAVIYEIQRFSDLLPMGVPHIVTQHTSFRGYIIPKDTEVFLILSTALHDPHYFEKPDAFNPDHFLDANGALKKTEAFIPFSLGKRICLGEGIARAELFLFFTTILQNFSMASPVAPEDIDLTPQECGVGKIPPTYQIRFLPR
The data set can be described thus: CYP inhibition assay in human liver microsomes. The settings on record: IC50 CYP 2B6, human liver microsomes; duplicate incubations, both values printed. It is filed as in vitro ADME.

Data set [6] deals with CYP3A4 (Homo sapiens, UniProt P08684). Kind of data set: CYP inhibition assay in human liver microsomes. It is filed as in vitro ADME. The settings on record: mean value given in text, HLM.
CYP3A4, sequence (P08684 2-503 limits assumed): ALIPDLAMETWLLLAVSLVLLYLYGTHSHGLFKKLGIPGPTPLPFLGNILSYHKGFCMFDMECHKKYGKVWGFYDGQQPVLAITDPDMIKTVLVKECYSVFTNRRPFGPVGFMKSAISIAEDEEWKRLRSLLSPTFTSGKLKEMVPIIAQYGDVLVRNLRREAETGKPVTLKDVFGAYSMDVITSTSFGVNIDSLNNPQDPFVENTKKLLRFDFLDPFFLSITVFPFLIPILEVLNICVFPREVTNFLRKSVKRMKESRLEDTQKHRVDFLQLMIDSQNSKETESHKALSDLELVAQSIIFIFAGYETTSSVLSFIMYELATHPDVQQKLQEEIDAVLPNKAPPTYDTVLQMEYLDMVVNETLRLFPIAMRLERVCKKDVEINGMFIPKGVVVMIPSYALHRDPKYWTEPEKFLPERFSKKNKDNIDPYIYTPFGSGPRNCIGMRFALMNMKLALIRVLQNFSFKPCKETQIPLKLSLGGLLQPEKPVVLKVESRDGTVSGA
Data set [7] addresses CYP 2C9 (Homo sapiens, UniProt P11712). Kind of data set: CYP inhibition assay in human liver microsomes. The class given is in vitro ADME.
Data set [8] has as its target T4, CYP 2C8 (Homo sapiens, UniProt P10632).
T4 sequence (P10632 1-490): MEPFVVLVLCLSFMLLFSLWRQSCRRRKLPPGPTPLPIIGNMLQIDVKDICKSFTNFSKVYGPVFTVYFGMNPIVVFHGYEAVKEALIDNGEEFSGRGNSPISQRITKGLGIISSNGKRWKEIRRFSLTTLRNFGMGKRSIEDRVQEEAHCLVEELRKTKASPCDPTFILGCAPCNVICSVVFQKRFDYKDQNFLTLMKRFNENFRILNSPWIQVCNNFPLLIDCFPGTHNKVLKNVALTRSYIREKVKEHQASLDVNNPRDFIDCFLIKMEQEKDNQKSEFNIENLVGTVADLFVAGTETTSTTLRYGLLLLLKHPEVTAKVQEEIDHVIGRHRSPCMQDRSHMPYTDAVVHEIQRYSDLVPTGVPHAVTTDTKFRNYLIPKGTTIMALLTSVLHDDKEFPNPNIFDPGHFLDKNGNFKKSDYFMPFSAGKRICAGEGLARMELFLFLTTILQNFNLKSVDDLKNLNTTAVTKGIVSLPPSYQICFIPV
Kind of data set: CYP inhibition assay in human liver microsomes. It is filed as in vitro ADME.

Data set [9] can be described thus: Repeated-dose. The settings on record: for AUC(0-t): AUClast. The class given is in vivo, male CD-1 mice.
The conditions of data set [10]: cited from earlier work.
Data set [11] in a line: Microsomal stability assay of Nos. The settings on record: Noscapine 10 μM alone; n=2. It is filed as in vitro ADME, Beagle dog.
The nature of data set [12]: Microsomal stability assay of Nos. It is filed as in vitro ADME, CD-1 mouse. The settings on record: Noscapine 10 μM alone; n=2.
A short description of data set [13]: Single-dose oral PK screening of Nos with dietary ingredients. It is filed as in vivo, male CD-1 mice.
Data set [14] can be described thus: Microsomal stability assay of Nos. The settings on record: Noscapine 10 μM alone; n=2. The class given is in vitro ADME, human.
Data set [15] in a line: Microsomal stability assay of Nos. It is filed as in vitro ADME, Sprague-Dawley rat. The settings on record: Noscapine 10 μM alone; n=2.
Data set [16] in a line: Clinical chemistry parameters after 7 days oral dosing. It is filed as in vivo, mice. The settings on record: hepatic and renal serum markers.
The test system of data set [17] is UGT. Kind of data set: In vitro UGT inhibition in mouse liver. The settings on record: UGT inhibition experiments, MLM and MIM, Figure 7.
Where [18] appears, read: IC50 CYP 1A2, human liver microsomes, duplicate incubations, both values printed.
Where [19] appears, read: IC50 CYP 2C9, human liver microsomes, duplicate incubations, both values printed.
Setting [20] is: IC50 CYP 2C8, human liver microsomes, duplicate incubations, both values printed.
The mark [21] stands for this setting: male, CD-1, mouse, plasma, po, 50 mg/kg.

CYP 2C9, sequence (P11712 whole entry): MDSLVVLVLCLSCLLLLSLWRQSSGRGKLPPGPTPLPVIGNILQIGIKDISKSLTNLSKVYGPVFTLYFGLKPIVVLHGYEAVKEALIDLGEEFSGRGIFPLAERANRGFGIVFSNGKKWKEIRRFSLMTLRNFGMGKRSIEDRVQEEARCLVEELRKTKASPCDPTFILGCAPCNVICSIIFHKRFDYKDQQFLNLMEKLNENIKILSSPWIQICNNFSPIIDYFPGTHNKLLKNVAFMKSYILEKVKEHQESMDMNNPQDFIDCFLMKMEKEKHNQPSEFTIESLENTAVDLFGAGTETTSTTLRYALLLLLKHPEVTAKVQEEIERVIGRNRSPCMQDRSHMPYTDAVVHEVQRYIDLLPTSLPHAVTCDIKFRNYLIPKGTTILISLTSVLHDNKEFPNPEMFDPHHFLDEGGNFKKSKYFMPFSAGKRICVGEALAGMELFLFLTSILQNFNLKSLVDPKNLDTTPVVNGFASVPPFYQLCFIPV

A word on the IC50: it is the concentration needed to halve the response being measured. `COc1cc(CNC(=O)CCCC/C=C/C(C)C)ccc1O` [Cap, capsaicin]: the IC50 was 3.1 µM and 3.5 µM in [1] (setting [18]); 3.3 µM in data set [1] (mean IC50 CYP1A2, mean value given in text, HLM); 68 µM in data set [2]; above 100 µM in data set [3]; above 100 µM in [4]; 26 µM and 24 µM in [5]. Further, the IC50 was 16 µM in data set [6] (mean IC50 CYP3A4, midazolam as substrate); 9.7 µM in [6] (mean IC50 CYP3A4, testosterone as substrate); 3.7 µM in data set [7]; 4.5 µM in data set [7] (setting [19]); 4.1 µM in [7] (mean IC50 CYP2C9, mean value given in text, HLM); 6.3 µM and 5.9 µM in data set [8] (setting [20]). It took 6.1 µM to reach half-maximal inhibition in [8] (mean IC50 CYP2C8, mean value given in text, HLM) (IC50).
As a reminder, the Cmax is the highest concentration seen after dosing. A word on the Tmax: it is the time from dosing to the highest level. Usually AUC(0-t) stands for the area under the concentration-time curve up to a stated or last time point. Higher therefore signals high exposure. In general, half-life refers to the time in which the quantity being followed falls by half. As for `COc1ccc2c(c1OC)C(=O)O[C@@H]2[C@H]1c2c(cc3c(c2OC)OCO3)CCN1C` [Nos, Noscapine], the AUClast in data set [9] (Day 1, noscapine, oral gavage Nos 50 mg/kg bw, Cap/Pip 5 mg/kg bw, CD-1 mice) was determined as 1023.76 ng·h/mL; in [9] (Day 7, noscapine, daily oral gavage Nos 50 mg/kg bw, Cap/Pip 5 mg/kg bw, CD-1 mice), 507.74 ng·h/mL. The Cmax in [9] (Day 1, noscapine, oral gavage Nos 50 mg/kg bw, Cap/Pip 5 mg/kg bw, CD-1 mice, mean ± SD) is 3087.37 ± 1232.27 ng/mL; in data set [9] (Day 7, noscapine, daily oral gavage Nos 50 mg/kg bw, Cap/Pip 5 mg/kg bw, CD-1 mice, mean ± SD), 684.04 ± 31.77 ng/mL. In addition, the Tmax at 1 day in data set [9] (setting [21]) stood at 10.2 min. Also, the Tmax at 7 days in data set [9] (setting [21]) amounted to 15 min. The AUC(0-t) in [9] (male, CD-1, mouse, plasma, po, 50 mg/kg, Day 1, noscapine, oral gavage Nos 50 mg/kg bw, Cap/Pip 5 mg/kg bw, CD-1 mice) is 1020 ng·h/mL; in data set [9] (male, CD-1, mouse, plasma, po, 50 mg/kg, Day 7, noscapine, daily oral gavage Nos 50 mg/kg bw, Cap/Pip 5 mg/kg bw, CD-1 mice), 508 ng·h/mL; in [13] (setting [21]) it was 1920 ng·h/mL. This compound registered a Cmax at 1 day in [9] (male, CD-1, mouse, plasma, po, 50 mg/kg, Cmax, Day 1, noscapine, oral gavage Nos 50 mg/kg bw, Cap/Pip 5 mg/kg bw, CD-1 mice, mean ± SD) of 3090 ng/mL. This compound also registered a Cmax at 7 days in data set [9] (male, CD-1, mouse, plasma, po, 50 mg/kg, Cmax, Day 7, noscapine, daily oral gavage Nos 50 mg/kg bw, Cap/Pip 5 mg/kg bw, CD-1 mice, mean ± SD) of 684 ng/mL. In addition, in data set [9] (repeated oral dosing for seven days), the “decrease in exposure of Nos on day 7 compared to day 1” value is recorded as “half”. Further, in data set [10] (mice, ref Aneja et al., 2007), the bioavailability result is recorded as “around 32%”. Also, in data set [10] (mouse, reported, no reference given), the Oral bioavailability is recorded as 30%. For the same compound, the half-life is below 120 min in data set [10] (ref Aneja et al., 2007) and below 60 min in data set [13] (setting [21]). Besides, the IC50 in data set [1] (setting [18]) was above 100 µM; in data set [2] it was above 100 µM; in [3], above 100 µM; in data set [4], above 100 µM; in data set [5], above 100 µM; in data set [7] (setting [19]), 18 µM and 24 µM. Moreover, in data set [8] (setting [20]), the IC50 is 10 µM and 8.4 µM. Further, the “Intrinsic Clearance DLM” value in data set [11] turned out to be 1.9 mL/min/g liver. The “Intrinsic Clearance MLM” value in [12] is 6.4 mL/min/g liver. In addition, in data set [13] (setting [21]), the Tmax was determined as 4.8 min. Besides, the “Intrinsic Clearance HLM” value in [14] was 1.8 mL/min/g liver. Moreover, in [15], the “Intrinsic Clearance RLM” value is recorded as 4.0 mL/min/g liver. In data set [16], the “clinical chemistry parameters vs vehicle-treated mice” value was “did not affect”.
For `C=CCc1ccc(O)c(OC)c1` [Eu, eugenol], in data set [13] (Nos alone or co-dosed with the named dietary agent, single oral dose), the “Tmax of Nos” value is “remained unaffected”.
On to `O=C(/C=C/C=C/c1ccc2c(c1)OCO2)N1CCCCC1` [Pip, piperine], for which the “inhibitory effect on the rate of metabolism of Nos” value in data set [17] is “did not reveal significant inhibitory effects”. Further, the IC50 in [1] (setting [18]) is 35 µM and 38 µM; in [2], above 100 µM; in [3] it was above 100 µM; in [4], above 100 µM; in data set [5], 87 µM and 90 µM; in data set [7] it was 54 µM. The IC50 in data set [8] (setting [20]) is 84 µM and 78 µM.
